Data from US20030232820A1, “Method for synthesizing oxazinones” (priority 2001, published 2003).

Experiments:
[1] = tested on: Micrococcus luteus; assay: Agar plate filter disc test for antibacterial activity; settings: for Zone size: agar plate seeded with Micrococcus luteus, 12 hours at 30° C.; for antibacterial activity against Micrococcus luteus: agar plates, in words
[2] = tested on: tuberculosis bacilli; settings: in words, prior art; cited from earlier work
[3] = tested on: glutamate-aspartate transaminase; settings: in words, prior art; cited from earlier work

**Q.** Which results are given for `C[C@H](C(=O)O)N1OCCCC1=O` [Compound R, 2R-(3-Oxo-[1,2]Oxazinan-2-yl)-Propionic Acid]?
**A.** Zone size ([1]; Weight 400 micrograms on disc): 23 mm; antibacterial activity against Micrococcus luteus [1]: exhibited activity

**Q.** Which Zone size ([1]; Weight 10 micrograms on disc) does the source give for `CC1=C(C(=O)O)N2C(=O)[C@@H](NC(=O)Cc3ccccc3)[C@H]2SC1` [desacetoxycephalosporin G] here?
**A.** 39 mm

**Q.** With `CC(C(=O)O)N1OCCC(NC(=O)Cc2ccccc2)C1=O` (stereo not drawn) [UA, 2-(α-Carboxylethyl)-4-phenylacetylamino-1,2-oxazinan-3-one] as the compound, how does the melting point read?
**A.** 189 to 190 °C

**Q.** For `NC1CCONC1=O` (racemic) [DL-cyclocanaline, 4-amino-tetrahydro-1,2-oxazin-3-one], which “activity against tuberculosis bacilli” value [2] is on record?
**A.** exhibits activity

**Q.** And the “inhibition of glutamate-aspartate transaminase” value [3]?
**A.** known to inhibit

**Q.** And the Zone size ([1]; Weight 400 micrograms on disc)?
**A.** 48 mm

**Q.** And the Zone size ([1]; Weight 600 micrograms on disc)?
**A.** 58 mm

**Q.** And the “antibacterial activity against Micrococcus luteus” value [1]?
**A.** exhibited activity
